# Results reported in patent US8912209B2, “Rock inhibitors” (Amakem NV, priority 2010, dated 2014).
# pIC50: −log10 of the molar value.
# Molecular target: T1, ROCKα/ROCKII (Homo sapiens, UniProt O75116)
# T1 construct: purchased Upstate Biotechnology 14-451
# Assay: ROCK inhibition, Method 2 fluorescence polarization (FP) assay, ROCK IMAP Kit
# Type: biochemical
# Conditions: 10 μM ATP, read-out: IC50 Meth. 2
# Description: The inhibition assays were performed with a fluorescence polarization (FP) assay using the commercially available ROCK IMAP Kit from Molecular Devices (Product ID. No. R8093), essentially in accordance with the protocol supplied by the manufacturer. […] The enzyme mix ROCKα/ROCKII was obtained from Upstate Biotechnology (Product ID No 14-451).
# In summary, all compounds were screened in the wells of a 384 well plate for enzymatic inhibition with concentrations varying from 100 μM to 0.3 nM using a stepwise 3 (or 2)-fold dilution.
# To perform the assay, 1 μl of a solution of the compound to be tested in DMSO (at each concentration) was added to 2 μl of a solution of the enzyme in 10 mM Tris-HCl, 10 mM MgCl2, 0.1% BSA, 0.05% NaN3, pH 7,2. The final concentration of the enzyme was 2.6 nM.
# After incubating for 30 minutes at RT, 2 μl of a mixture of ATP and the protein substrate in 10 mM Tris-HCl, 10 mM MgCl2, 0.1% BSA, 0.05% NaN3, pH 7.2 was added. The final concentration of the ATP was 10 μM and final concentration of protein substrate was 0.2 μM.
# After incubating for 60 minutes at RT, 12 μl of the IMAP Binding Solution (mix of the IMAP Binding Buffer A (1×) and the IMAP Binding Reagent (from the ROCK IMAP kit)) was added.
# The mixture thus obtained (total volume: 17 μl) was incubated for 60 minutes at RT, upon which the fluorescence polarization was measured using an automated plate reader (Perkin Elmer, Model Envision 2100-0010 HTS) with FP filters: excitation filter FITC FP 480 and emission filters FITC FP P-pol 535 and FITC FP S-pol 535 (Perkin-Elmer). The results were fitted to a curve using the XL-Fit algorithm and IC50 values were calculated for each fitted curve, again using the XL-Fit algorithm.
# T1 sequence (O75116 whole entry): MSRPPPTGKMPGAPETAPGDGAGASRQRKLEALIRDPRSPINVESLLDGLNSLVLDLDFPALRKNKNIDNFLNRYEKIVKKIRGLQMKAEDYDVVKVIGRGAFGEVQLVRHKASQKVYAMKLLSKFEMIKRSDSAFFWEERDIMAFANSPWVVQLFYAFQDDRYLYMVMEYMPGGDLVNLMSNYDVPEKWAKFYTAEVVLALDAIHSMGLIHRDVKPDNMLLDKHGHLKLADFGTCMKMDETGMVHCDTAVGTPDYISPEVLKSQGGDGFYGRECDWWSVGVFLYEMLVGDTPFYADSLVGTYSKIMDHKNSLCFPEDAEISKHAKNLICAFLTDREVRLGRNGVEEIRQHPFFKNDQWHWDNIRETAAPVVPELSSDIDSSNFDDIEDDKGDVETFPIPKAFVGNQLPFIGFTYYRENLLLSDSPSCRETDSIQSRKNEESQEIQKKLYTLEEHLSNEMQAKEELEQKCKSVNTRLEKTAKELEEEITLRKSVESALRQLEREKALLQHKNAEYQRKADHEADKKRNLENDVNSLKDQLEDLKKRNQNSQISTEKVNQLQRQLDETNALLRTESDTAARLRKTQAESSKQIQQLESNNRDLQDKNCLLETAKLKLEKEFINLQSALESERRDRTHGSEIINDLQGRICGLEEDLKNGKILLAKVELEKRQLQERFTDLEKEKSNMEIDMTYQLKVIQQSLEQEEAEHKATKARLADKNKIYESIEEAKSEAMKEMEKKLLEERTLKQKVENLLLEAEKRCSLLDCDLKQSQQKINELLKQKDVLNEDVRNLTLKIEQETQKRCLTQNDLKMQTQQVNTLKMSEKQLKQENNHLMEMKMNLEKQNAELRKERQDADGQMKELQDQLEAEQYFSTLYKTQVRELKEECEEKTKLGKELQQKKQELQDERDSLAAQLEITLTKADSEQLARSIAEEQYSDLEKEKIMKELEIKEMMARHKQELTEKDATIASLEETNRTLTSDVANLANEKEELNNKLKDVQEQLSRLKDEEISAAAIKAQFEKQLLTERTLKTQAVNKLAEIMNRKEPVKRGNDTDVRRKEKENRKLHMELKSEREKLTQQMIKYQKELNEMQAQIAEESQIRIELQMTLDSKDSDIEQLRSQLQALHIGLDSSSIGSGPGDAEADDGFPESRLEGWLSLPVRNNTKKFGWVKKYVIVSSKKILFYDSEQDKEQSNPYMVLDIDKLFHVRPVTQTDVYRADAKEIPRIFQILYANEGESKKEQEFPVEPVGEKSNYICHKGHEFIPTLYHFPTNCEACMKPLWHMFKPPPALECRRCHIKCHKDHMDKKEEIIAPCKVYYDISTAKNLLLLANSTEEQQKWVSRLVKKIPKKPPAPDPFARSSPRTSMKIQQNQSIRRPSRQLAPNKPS
row,Molecule,pIC50
1,"CCCCCCCCCCCCOC(=O)c1cccc(-c2cc(C(=O)Nc3ccncc3)ccc2C(C)N)c1 (stereo not drawn) [Compound 22, 2′-(1-Amino-ethyl)-5′-(pyridin-4-ylcarbamoyl)-biphenyl-3-carboxylic acid dodecyl ester]",5.00 to 6.00
2,2′-(1-Amino-ethyl)-5′- (pyridin-4-ylcarbamoyl)- biphenyl-3-carboxylic acid 4-methylsulfanyl-phenyl ester [Compound 86],> 7.00
3,"CC(N)c1ccc(C(=O)Nc2ccncc2)cc1-c1cccc(C(=O)OCC(F)(F)F)c1 (stereo not drawn) [Compound 63, 2′-(1-Amino-ethyl)-5′-(pyridin-4-ylcarbamoyl)-biphenyl-3-carboxylic acid 2,2,2-trifluoro-ethyl ester]",6.00 to 7.00
4,"CCCCCCCCCCCCCCCCOC(=O)c1cccc(-c2cc(C(=O)Nc3ccncc3)ccc2C(C)N)c1 (stereo not drawn) [Compound 24, 2′-(1-Amino-ethyl)-5′-(pyridin-4-ylcarbamoyl)-biphenyl-3-carboxylic acid hexadecyl ester]",5.00 to 6.00
5,CCCOC(=O)c1cccc(-c2cc(C(=O)Nc3ccncc3F)ccc2CN)c1 [Compound 174],6.00 to 7.00
6,"COc1cccc(OC)c1OC(=O)c1cccc(-c2cc(C(=O)Nc3ccncc3)ccc2C(C)N)c1 (stereo not drawn) [Compound 74, 2′-(1-Amino-ethyl)-5′-(pyridin-4-ylcarbamoyl)-biphenyl-3-carboxylic acid 2,6-dimethoxy-phenyl ester]",6.00 to 7.00
7,"CCCCCCCCCCCCCOC(=O)c1cccc(-c2cc(C(=O)Nc3ccncc3)ccc2C(C)N)c1 (stereo not drawn) [Compound 23, 2′-(1-Amino-ethyl)-5′-(pyridin-4-ylcarbamoyl)-biphenyl-3-carboxylic acid tridecyl ester]",5.00 to 6.00
8,2′-(1-Amino-ethyl)-5′- (pyridin-4-ylcarbamoyl)- biphenyl-3-carboxylic acid 2-(toluene-4-sulfonyl)-ethyl ester [Compound 89],6.00 to 7.00
9,"CCOC(=O)c1cccc(-c2cc(C(=O)Nc3ccncc3F)ccc2C(C)N)c1 (stereo not drawn) [Compound 9, 2′-(1-Amino-ethyl)-5′-(3-fluoro-pyridin-4-ylcarbamoyl)-biphenyl-3-carboxylic acid ethyl ester]",> 7.00
10,"CC(N)c1ccc(C(=O)Nc2ccncc2F)cc1-c1cccc(C(=O)OCCF)c1 (stereo not drawn) [Compound 61, 2′-(1-Amino-ethyl)-5′-(3-fluoro-pyridin-4-ylcarbamoyl)-biphenyl-3-carboxylic acid 2-fluoro-ethyl ester]",6.00 to 7.00
11,"CC(N)c1ccc(C(=O)Nc2ccncc2)cc1-c1cccc(C(=O)OCC(Cl)(Cl)Cl)c1 (stereo not drawn) [Compound 64, 2′-(1-Amino-ethyl)-5′-(pyridin-4-ylcarbamoyl)-biphenyl-3-carboxylic acid 2,2,2-trichloro-ethyl ester]",> 7.00
12,"CC(N)c1ccc(C(=O)Nc2ccncc2)cc1-c1cccc(C(=O)OCc2ccc(Br)cc2)c1 (stereo not drawn) [Compound 84, 2′-(1-Amino-ethyl)-5′-(pyridin-4-ylcarbamoyl)-biphenyl-3-carboxylic acid 4-bromo-benzyl ester]",6.00 to 7.00
13,"CC(N)c1ccc(C(=O)Nc2ccncc2)cc1-c1cccc(C(=O)OCC2CC2)c1 (stereo not drawn) [Compound 36, 2′-(1-Amino-ethyl)-5′-(pyridin-4-ylcarbamoyl)-biphenyl-3-carboxylic acid cyclopropylmethyl ester]",> 7.00
14,"CC(N)c1ccc(C(=O)Nc2ccncc2)cc1-c1cccc(C(=O)OCc2ccccc2[N+](=O)[O-])c1 (stereo not drawn) [Compound 85, 2′-(1-Amino-ethyl)-5′-(pyridin-4-ylcarbamoyl)-biphenyl-3-carboxylic acid 2-nitro-benzyl ester]",6.00 to 7.00
15,"CC(N)c1ccc(C(=O)Nc2ccncc2)cc1-c1cccc2[nH]c(C(=O)Oc3ccccc3)cc12 (stereo not drawn) [Compound 173, 4-[2-(1-Amino-ethyl)-5-(pyridin-4-ylcarbamoyl)-phenyl]-1H-indole-2-carboxylic acid phenyl ester]",6.00 to 7.00
16,"CC(N)c1ccc(C(=O)Nc2ccncc2)cc1-c1cccc(C(=O)OCC2CCc3ccccc3C2)c1 (stereo not drawn) [Compound 94, 2′-(1-Amino-ethyl)-5′-(pyridin-4-ylcarbamoyl)-biphenyl-3-carboxylic acid 1,2,3,4-tetrahydro-naphthalen-2-ylmethyl ester]",6.00 to 7.00
17,"CC(C)OC(=O)c1cccc(-c2cc(C(=O)Nc3ccncc3)ccc2C(C)N)c1 (stereo not drawn) [Compound 27, 2′-(1-Amino-ethyl)-5′-(pyridin-4-ylcarbamoyl)-biphenyl-3-carboxylic acid isopropyl ester]",> 7.00
18,"CCCCCCCOC(=O)c1cccc(-c2cc(C(=O)Nc3ccncc3)ccc2C(C)N)c1 (stereo not drawn) [Compound 18, 2′-(1-Amino-ethyl)-5′-(pyridin-4-ylcarbamoyl)-biphenyl-3-carboxylic acid heptyl ester]",6.00 to 7.00

# Now from value to molecule:
row,pIC50,Molecule
1,> 7.00,"CCOC(=O)CSCC(=O)Nc1cccc(-c2cc(C(=O)Nc3ccncc3)ccc2C(C)N)c1 (stereo not drawn) [Compound 154, {[2′-(1-Aminoethyl)-5′-(pyridin-4-ylcarbamoyl)-biphenyl-3-ylcarbamoyl]-methylsulfanyl}-acetic acid ethyl ester]"
2,> 7.00,"CC(N)c1ccc(C(=O)Nc2ccncc2)cc1-c1cccc(C(=O)OCCCl)c1 (stereo not drawn) [Compound 62, 2′-(1-Amino-ethyl)-5′-(pyridin-4-ylcarbamoyl)-biphenyl-3-carboxylic acid 2-chloro-ethyl ester]"
3,> 7.00,"COc1cc(OC)cc(OC(=O)c2cccc(-c3cc(C(=O)Nc4ccncc4)ccc3C(C)N)c2)c1 (stereo not drawn) [Compound 75, 2′-(1-Amino-ethyl)-5′-(pyridin-4-ylcarbamoyl)-biphenyl-3-carboxylic acid 3,5-dimethoxy-phenyl ester]"
4,> 7.00,"CC(N)c1ccc(C(=O)Nc2ccncc2)cc1-c1cccc(C(=O)NC2CCSC2=O)c1 (stereo not drawn) [Compound 112, 6-(1-Amino-ethyl)-biphenyl-3,3′-dicarboxylic acid 3′-[(2-oxo-tetrahydro-thiophen-3-yl)-amide] 3-pyridin-4-ylamide]"
5,> 7.00,"CC(N)c1ccc(C(=O)Nc2ccncc2F)cc1-c1cccc(C(=O)OCCCO)c1 (stereo not drawn) [Compound 68, 2′-(1-Amino-ethyl)-5′-(3-fluoro-pyridin-4-ylcarbamoyl)-biphenyl-3-carboxylic acid 3-hydroxy-propyl ester]"
6,> 7.00,"CC(C)COC(=O)c1cccc(-c2cc(C(=O)Nc3ccncc3)ccc2C(C)N)c1 (stereo not drawn) [Compound 40, 2′-(1-Amino-ethyl)-5′-(pyridin-4-ylcarbamoyl)-biphenyl-3-carboxylic acid isobutyl ester]"
7,> 7.00,"COc1cc(OC(=O)c2cccc(-c3cc(C(=O)Nc4ccncc4F)ccc3C(C)N)c2)cc(OC)c1OC (stereo not drawn) [Compound 79, 2′-(1-Amino-ethyl)-5′-(3-fluoro-pyridin-4-ylcarbamoyl)-biphenyl-3-carboxylic acid 3,4,5-trimethoxy phenylester]"
8,> 7.00,"CC#CCOC(=O)c1cccc(-c2cc(C(=O)Nc3ccncc3)ccc2C(C)N)c1 (stereo not drawn) [Compound 59, 2′-(1-Amino-ethyl)-5′-(pyridin-4-ylcarbamoyl)-biphenyl-3-carboxylic acid but-2-ynyl ester]"
9,> 7.00,"CC(N)c1ccc(C(=O)Nc2ccncc2)cc1-c1cccc(C(=O)OCC(=O)c2ccc(Br)cc2)c1 (stereo not drawn) [Compound 96, 2′-(1-Amino-ethyl)-5′-(pyridin-4-ylcarbamoyl)-biphenyl-3-carboxylic acid 2-(4-bromo-phenyl)-2-oxo-ethyl ester]"
